Measurements published in patent US12049450B2, “Pyridyloxy-carboxylate derivative and preparation method therefor, herbicidal composition, and use” (Qingdao Kingagroot Chemical Compound Co., Ltd., priority 2018, dated 2024).

Key:
Experiment in all cases: Post-emergence test experiment (greenhouse pot, spray at 2-3 leaf stage)
Type in all cases: in vivo
Conditions in all cases: 1000 g/ha; post-emergence spray at 2-3 leaf stage; assessed after 3 weeks; fresh weight inhibition rate
[1] = system: Abutilon theophrasti
Procedure, shortened: (§1)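 Activity graded levels 0-5 by fresh-weight inhibition (level 5 above 85%, level 0 below 5%), assessed 3 weeks after treatment. Plants grown in greenhouse pots were sprayed post-emergence at 2-3 leaves using acetone/tween-80 solutions with methyl oleate synergist (1.5 L/ha).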

[2] = system: Digitaria sanguinalis
Procedure, shortened: as §1

[3] = system: Echinochloa crusgalli
Procedure, shortened: as §1

[4] = system: Galium spurium
Procedure, shortened: as §1

[5] = system: Monochoria vaginalis
Procedure, shortened: as §1

Row | SMILES | Activity level (growth inhibition rate) Abutilon theophrasti [1] | Activity level (growth inhibition rate) Digitaria sanguinalis [2] | Activity level (growth inhibition rate) Echinochloa crusgalli [3] | Activity level (growth inhibition rate) Galium spurium [4] | Activity level (growth inhibition rate) Monochoria Vaginalis [5]
1 | CC(Oc1nc(F)c(Cl)c(N)c1Cl)C(=O)OCc1cc(Br)cc(C=O)c1 (racemic) [Compound 111] | 5 (Level 5: the growth inhibition rate is greater than 85%) | 5 (Level 5: the growth inhibition rate is greater than 85%) | 5 (Level 5: the growth inhibition rate is greater than 85%) | 5 (Level 5: the growth inhibition rate is greater than 85%) | 5 (Level 5: the growth inhibition rate is greater than 85%)
2 | CC(Oc1nc(F)c(Cl)c(N)c1Cl)C(=O)SCc1ccco1 (stereo not shown) [Compound 139] | 5 (Level 5: the growth inhibition rate is greater than 85%) | 5 (Level 5: the growth inhibition rate is greater than 85%) | 5 (Level 5: the growth inhibition rate is greater than 85%) | 5 (Level 5: the growth inhibition rate is greater than 85%) | 5 (Level 5: the growth inhibition rate is greater than 85%)
3 | CC(Oc1nc(F)c(Cl)c(N)c1Cl)C(=O)OCc1cccc(Br)c1 (stereo not shown) [Compound 206] | 5 (Level 5: the growth inhibition rate is greater than 85%) | 5 (Level 5: the growth inhibition rate is greater than 85%) | 5 (Level 5: the growth inhibition rate is greater than 85%) | 5 (Level 5: the growth inhibition rate is greater than 85%) | 5 (Level 5: the growth inhibition rate is greater than 85%)
4 | Cc1cc(COC(=O)C(C)Oc2nc(F)c(Cl)c(N)c2Cl)n(C)n1 (stereo not shown) [Compound 127] | 5 (Level 5: the growth inhibition rate is greater than 85%) | 5 (Level 5: the growth inhibition rate is greater than 85%) | 5 (Level 5: the growth inhibition rate is greater than 85%) | 5 (Level 5: the growth inhibition rate is greater than 85%) | 5 (Level 5: the growth inhibition rate is greater than 85%)
5 | CC(Oc1nc(F)c(Cl)c(N)c1Cl)C(=O)OCc1ncco1 (stereo not shown) [Compound 143] | 5 (Level 5: the growth inhibition rate is greater than 85%) | 5 (Level 5: the growth inhibition rate is greater than 85%) | 5 (Level 5: the growth inhibition rate is greater than 85%) | 5 (Level 5: the growth inhibition rate is greater than 85%) | 5 (Level 5: the growth inhibition rate is greater than 85%)
6 | CC(Oc1nc(F)c(Cl)c(N)c1Cl)C(=O)OCc1cc(F)ccc1F (stereo not shown) [Compound 79] | 5 (Level 5: the growth inhibition rate is greater than 85%) | 5 (Level 5: the growth inhibition rate is greater than 85%) | 5 (Level 5: the growth inhibition rate is greater than 85%) | 5 (Level 5: the growth inhibition rate is greater than 85%) | 5 (Level 5: the growth inhibition rate is greater than 85%)
7 | CC(Oc1nc(F)c(Cl)c(N)c1Cl)C(=O)SCCc1ccc2ccsc2c1 (stereo not shown) [Compound 179] | 5 (Level 5: the growth inhibition rate is greater than 85%) | 5 (Level 5: the growth inhibition rate is greater than 85%) | 5 (Level 5: the growth inhibition rate is greater than 85%) | 5 (Level 5: the growth inhibition rate is greater than 85%) | 5 (Level 5: the growth inhibition rate is greater than 85%)
8 | CC(Oc1nc(F)c(Cl)c(N)c1Cl)C(=O)OCc1cnco1 (stereo not shown) [Compound 141] | 5 (Level 5: the growth inhibition rate is greater than 85%) | 5 (Level 5: the growth inhibition rate is greater than 85%) | 5 (Level 5: the growth inhibition rate is greater than 85%) | 5 (Level 5: the growth inhibition rate is greater than 85%) | 5 (Level 5: the growth inhibition rate is greater than 85%)
9 | Cc1cccc(CSC(=O)C(C)Oc2nc(F)c(Cl)c(N)c2Cl)c1 (stereo not shown) [Compound 219] | 5 (Level 5: the growth inhibition rate is greater than 85%) | 5 (Level 5: the growth inhibition rate is greater than 85%) | 5 (Level 5: the growth inhibition rate is greater than 85%) | 5 (Level 5: the growth inhibition rate is greater than 85%) | 5 (Level 5: the growth inhibition rate is greater than 85%)
10 | CC(Oc1nc(F)c(Cl)c(N)c1Cl)C(=O)OCc1ccccc1Cl (stereo not shown) [Compound 202] | 5 (Level 5: the growth inhibition rate is greater than 85%) | 5 (Level 5: the growth inhibition rate is greater than 85%) | 5 (Level 5: the growth inhibition rate is greater than 85%) | 5 (Level 5: the growth inhibition rate is greater than 85%) | 5 (Level 5: the growth inhibition rate is greater than 85%)
11 | CC(Oc1nc(F)c(Cl)c(N)c1Cl)C(=O)OCc1ccc(C(C)C)cc1 (stereo not shown) [Compound 72] | 5 (Level 5: the growth inhibition rate is greater than 85%) | 5 (Level 5: the growth inhibition rate is greater than 85%) | 5 (Level 5: the growth inhibition rate is greater than 85%) | 5 (Level 5: the growth inhibition rate is greater than 85%) | 5 (Level 5: the growth inhibition rate is greater than 85%)
12 | CC(Oc1nc(F)c(Cl)c(N)c1Cl)C(=O)OCc1ccc2c(c1)OCCO2 (stereo not shown) [Compound 189] | 5 (Level 5: the growth inhibition rate is greater than 85%) | 5 (Level 5: the growth inhibition rate is greater than 85%) | 5 (Level 5: the growth inhibition rate is greater than 85%) | 5 (Level 5: the growth inhibition rate is greater than 85%) | 5 (Level 5: the growth inhibition rate is greater than 85%)
13 | Cc1ccccc1CSC(=O)C(C)Oc1nc(F)c(Cl)c(N)c1Cl (stereo not shown) [Compound 218] | 5 (Level 5: the growth inhibition rate is greater than 85%) | 5 (Level 5: the growth inhibition rate is greater than 85%) | 5 (Level 5: the growth inhibition rate is greater than 85%) | 5 (Level 5: the growth inhibition rate is greater than 85%) | 5 (Level 5: the growth inhibition rate is greater than 85%)
14 | CC(Oc1nc(F)c(Cl)c(N)c1Cl)C(=O)OCCc1cccc2cnncc12 (stereo not shown) [Compound 187] | 5 (Level 5: the growth inhibition rate is greater than 85%) | 5 (Level 5: the growth inhibition rate is greater than 85%) | 5 (Level 5: the growth inhibition rate is greater than 85%) | 5 (Level 5: the growth inhibition rate is greater than 85%) | 5 (Level 5: the growth inhibition rate is greater than 85%)
15 | CC(Oc1nc(F)c(Cl)c(N)c1Cl)C(=O)SCc1ccc(C#CCF)cc1 (stereo not shown) [Compound 95] | 5 (Level 5: the growth inhibition rate is greater than 85%) | 5 (Level 5: the growth inhibition rate is greater than 85%) | 5 (Level 5: the growth inhibition rate is greater than 85%) | 5 (Level 5: the growth inhibition rate is greater than 85%) | 5 (Level 5: the growth inhibition rate is greater than 85%)
16 | CCC(=O)Cc1ccc(CSC(=O)C(C)Oc2nc(F)c(Cl)c(N)c2Cl)cc1 (stereo not shown) [Compound 103] | 5 (Level 5: the growth inhibition rate is greater than 85%) | 5 (Level 5: the growth inhibition rate is greater than 85%) | 5 (Level 5: the growth inhibition rate is greater than 85%) | 5 (Level 5: the growth inhibition rate is greater than 85%) | 5 (Level 5: the growth inhibition rate is greater than 85%)
17 | CC(Oc1nc(F)c(Cl)c(N)c1Cl)C(=O)OCc1cccc2ccccc12 (stereo not shown) [Compound 211] | 5 (Level 5: the growth inhibition rate is greater than 85%) | 5 (Level 5: the growth inhibition rate is greater than 85%) | 5 (Level 5: the growth inhibition rate is greater than 85%) | 5 (Level 5: the growth inhibition rate is greater than 85%) | 5 (Level 5: the growth inhibition rate is greater than 85%)
